The text below walks through data of PMC6271626, “Design, Synthesis, and Biological Evaluation of Artemisinin-Indoloquinoline Hybrids as Potent Antiproliferative Agents” (Molecules, 2014).

For orientation: IC50 means the concentration at which inhibition is half-maximal.

Test [1] has as its system human leukemia MV4-11 cell line. The test can be described thus: Antiproliferative assay in vitro, MTT, MV4-11. The class given is cell-based. The conditions noted are these: mean ± SD. Here is the method: (§1) MV4-11 cells were cultured in the RPMI 1640 medium (IIET, Wroclaw) supplemented with 2 mM L-glutamine and 1.0 mM sodium pyruvate, 10% fetal bovine serum (all from Sigma Aldrich, Germany). HCT116 and A549 cells were cultured in the RPMI1640 + OptiMEM (50:50) medium (IIET, Wroclaw) supplemented with 2 mM L-glutamine and 5% fetal bovine serum (all from Sigma Aldrich, Germany), BALB/3T3 cells were cultured in Dulbecco medium (IIET, Wroclaw) supplemented with 2 mM L-glutamine and 1.0 mM sodium pyruvate, 10% fetal bovine serum (all from Sigma Aldrich, Germany). All culture medium was supplemented with 100 units/mL penicillin and […] streptomycin (both from Polfa, Tarchomin S.A., Warsaw, Poland). All cell lines were grown at 37 °C with 5% CO2 humidified atmosphere.
(§2) Test solutions of the compounds tested (1 mg/mL) were prepared by dissolving the substances in 100 μL of DMSO completed with 900 μL of tissue culture medium. Afterward, the tested compounds were diluted in culture medium to reach the final concentrations of 10, 1, 0.1, 0.01 μg/mL. Twenty four hours prior to the addition of the tested compounds, the cells were plated in 96-well plates (Sarstedt, Germany) at a density of 1 × 10^4 or 0.5× 10^4 (HCT116) cells per well. The assay was performed after 72 h of exposure to varying concentrations of the tested agents. The in vitro cytotoxic effect of all agents was examined using the MTT (for MV4-11 cell line) or SRB (for A549, HCT116 and BALB/3T3 cell lines) assay. The results were calculated as an IC50 (inhibitory concentration 50)–the dose of tested agent that inhibits proliferation of 50% of the cell population. Each compound in each concentration was tested in triplicate in a single experiment, which was repeated 3–5 times.

The subject of test [2] is normal mice fibroblast BALB/3T3. The test can be described thus: Cytotoxicity against normal fibroblasts, SRB, BALB/3T3. The class given is cell-based, mouse. The conditions noted are these: mean ± SD. Here is the method: as §1, §2
Test [3] deals with A549, human non-small-cell lung adenocarcinoma cell line. The test can be described thus: Antiproliferative assay in vitro, SRB, A549. The class given is cell-based. The conditions noted are these: mean ± SD. Here is the method: as §1, §2
Test [4] relates to HCT116, human colon cancer cell line. The test can be described thus: Antiproliferative assay in vitro, SRB, HCT116. The settings on record: mean ± SD. The class given is cell-based. Here is the method:
as §1, §2

Test [5] relates to human leukemia MV4-11 cell line. The settings on record: MV4-11 human leukemia cell line; cited from earlier work.
The subject of test [6] is A549, human non-small-cell lung adenocarcinoma cell line. Also on record: method as in PMID 21207937. The conditions noted are these: cited from earlier work.
Test [7] concerns HCT116, human colon cancer cell line. Also on record: method as in PMID 21207937. The settings on record: cited from earlier work.
The mark [8] stands for this setting: Mus musculus, BALB/3T3, 72 h exposure.
Where [9] appears, read: Homo sapiens, A549, 72 h exposure.
Where [10] appears, read: Homo sapiens, HCT-116, 72 h exposure.
Where [11] appears, read: Homo sapiens, MV4-11, 72 h exposure.

SMILES strings stand for the structures. Several values for one entry are separate records, joined by “and”; a condition that tells them apart may be missing. Equal values may be shown once. Where a name gives a salt, the structure may show the parent alone. Read-outs that look alike come from different tables or passages of the source.

Consider `CC1CCC2C(C)C(OC(=O)CCC(=O)NCC(C)(C)CNc3c4c5ccccc5nc-4n(C)c4ccc(Br)cc34)OC3OC4(C)CCC1C32OO4` (centres unmarked) [Compound 7c, Artesunate-[N^1-(2-bromo-5-methyl-5H-indolo[2,3-b]quinolin-11-yl)-2,2-dimethylpropane-1,3-diamine] hybrid], for which the IC50 in test [1] (72 h exposure) amounted to 242 ± 31 nM.
In the case of `CC1CCC2C(C)C(OC(=O)CCC(=O)NCC(C)(C)CNc3c4c5ccccc5nc-4n(C)c4ccc(Cl)cc34)OC3OC4(C)CCC1C32OO4` (centres unmarked) [Compound 7b, Artesunate-[N^1-(2-chloro-5-methyl-5H-indolo[2,3-b]quinolin-11-yl)-2,2-dimethjylpropane-1,3-diamine] hybrid], the concentration for half-maximal inhibition (IC50) in test [1] (72 h exposure) was ~72 nM and 72 nM; in test [2] (72 h exposure), 6420 ± 996 nM; in test [3] (72 h exposure), 4560 ± 2090 nM; in test [4] (72 h exposure), 893 ± 397 nM.
In the case of `COC(=O)c1ccc2c(c1)c(NCCCN)c1c3ccccc3nc-1n2C` [Compound 4d, methyl 11-(3-aminopropylamino)-5-methyl-5H-indolo[2,3-b]quinoline-2-carboxylate], the IC50 in test [2] (setting [8]) was 768 ± 155 nM; in test [3] (setting [9]), 649 ± 80 nM; in test [4] (setting [10]), 130 ± 14 nM; in test [5], 86 ± 20 nM.
On to `CC1CCC2C(C)C(OC(=O)CCC(=O)NCCCNc3c4c5ccccc5nc-4n(C)c4ccccc34)OC3OC4(C)CCC1C32OO4` (centres unmarked) [Compound 7a, Artesunate-[N^1-(5-methyl-5H-indolo[2,3-b]quinolin-11-yl)propane-1,3-diamine] hybrid], for which, in test [1] (72 h exposure), half-maximal inhibition (IC50) was put at 286 ± 79 nM.
As for `CC1CCC2C(C)C(OC(=O)CCC(=O)NCCCNc3c4ccccc4nc4c3[nH]c3ccccc34)OC3OC4(C)CCC1C32OO4` (centres unmarked) [Compound 8, Artesunate-[11-(3-aminopropylamino)-10H-indolo[3,2-b]quinoline] hybrid], the half-maximal inhibitory concentration (IC50) was 286 ± 127 nM in test [1] (setting [11]), 2720 ± 731 nM in test [2] (setting [8]), 1330 ± 586 nM in test [3] (setting [9]) and 557 ± 85 nM in test [4] (setting [10]).
Regarding `Cn1c2nc3ccccc3c-2c(NCCCN)c2ccccc21` [Compound 4a, N^1-(5-methyl-5H-indolo[2,3-b]quinolin-11-yl)propane-1,3-diamine], the IC50 in test [5] was 66 ± 23 nM.
As to `CC1CCC2C(C)C(OC(=O)CCC(=O)NCCCNc3nc4ccccc4c4[nH]c5ccccc5c34)OC3OC4(C)CCC1C32OO4` (centres unmarked) [Compound 9], the IC50 is 128 ± 36 nM in test [1] (setting [11]), 4980 ± 471 nM in test [2] (setting [8]), 1810 ± 516 nM in test [3] (setting [9]) and 855 ± 235 nM in test [4] (setting [10]).
`COC(=O)c1ccc2c(c1)c(NCCCNC(=O)CCC(=O)OC1OC3OC4(C)CCC5C(C)CCC(C1C)C35OO4)c1c3ccccc3nc-1n2C` (centres unmarked) [Compound 7d, Artesunate-[methyl 11-(3-aminopropylamino)-5-methyl-5H-indolo[2,3-b]quinoline-2-carboxylate] hybride]: the IC50 in test [1] (72 h exposure) stood at 148 ± 15 nM; in test [2] (72 h exposure) it was 4950 ± 220 nM; in test [3] (72 h exposure), 3660 ± 535 nM; in test [4] (72 h exposure), 1760 ± 329 nM.
`N.N.[Cl][Pt][Cl]` [cisplatin, reference compound]: the 50% inhibitory concentration (IC50) was 2820 ± 450 nM in test [1] (72 h exposure), 9500 ± 500 nM in test [2] (72 h exposure), 8960 ± 3330 nM in test [3] (72 h exposure) and 9460 ± 1300 nM in test [4] (72 h exposure).
Turning to `NCCCNc1nc2ccccc2c2[nH]c3ccccc3c12` [Compound 6, 6-(3-aminopropylamino)-11H-indolo[3,2-c]quinoline], the half-inhibitory concentration (IC50) in test [1] (setting [11]) is 124 ± 10 nM; in test [2] (setting [8]) it was 1050 ± 127 nM; in test [3] (setting [9]) it was 172 ± 52 nM; in test [4] (setting [10]) it was 258 ± 107 nM.
Regarding `COC(=O)c1ccc2c(c1)c(NCC(C)(C)CNC(=O)CCC(=O)OC1OC3OC4(C)CCC5C(C)CCC(C1C)C35OO4)c1c3ccccc3nc-1n2C` (centres unmarked) [Compound 7e, Artesunate-[methyl 11-(3-amino-2,2-dimethylpropylamino)-5-methyl-5H-indolo[2,3-b]quinoline-2-carboxylate] hybrid], the half-maximal inhibitory concentration (IC50) in test [1] (72 h exposure) was 75 ± 1 nM; in test [2] (72 h exposure), 5940 ± 1160 nM; in test [3] (72 h exposure), 5060 ± 911 nM; in test [4] (72 h exposure), 2210 ± 687 nM.
As for `COc1cccc2c1C(=O)c1c(O)c3c(c(O)c1C2=O)C[C@@](O)(C(=O)CO)C[C@@H]3O[C@H]1C[C@H](N)[C@H](O)[C@H](C)O1` [doxorubicin HCl, reference compound], the IC50 in test [1] (setting [11]) came out at 6 ± 2 nM.
For `C[C@H]1[C@@H](O)O[C@@H]2O[C@@]3(C)CC[C@H]4[C@H](C)CC[C@@H]1[C@@]24OO3` [DHA (2), dihydroartemisinin], the 50% inhibitory concentration (IC50) in test [6] was above 20000 nM; in test [7] it was 1340 ± 1060 nM.
